The supplement of paper PMC11451515

Tested on: SEM cells
Assay: cell viability relative to DMSO control; higher = less cytotoxic
Details: 48 h
In short: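 Library compounds in DMSO were pin-dosed into 1536-well plates (5 μl) holding NOMO1 or SEM (500 cells/well) or P12-Ichikawa (1000 cells/well) leukemia cells, across an 11-point threefold series of 47 μM to 0.79 nM. Each cell line had been adapted for at least four passages in each medium. CellTiter-Glo One luminescence was read after 48 h at 37°C. Viability is the per-plate percentage relative to DMSO wells, with cell-free wells as background.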

[1] = HPLM + 10% dialyzed FBS, 0.000781 µM
[2] = HPLM + 10% dialyzed FBS, 0.00234 µM
[3] = HPLM + 10% dialyzed FBS, 0.00702 µM
[4] = HPLM + 10% dialyzed FBS, 0.0211 µM
[5] = HPLM + 10% dialyzed FBS, 0.0632 µM
[6] = HPLM + 10% dialyzed FBS, 0.19 µM
[7] = HPLM + 10% dialyzed FBS, 0.569 µM
[8] = HPLM + 10% dialyzed FBS, 1.71 µM
[9] = HPLM + 10% dialyzed FBS, 5.12 µM
[10] = HPLM + 10% dialyzed FBS, 15.4 µM
[11] = HPLM + 10% dialyzed FBS, 46.1 µM
[12] = RPMI 5 mM glucose + 10% FBS, 0.000781 µM
[13] = RPMI 5 mM glucose + 10% FBS, 0.00234 µM
[14] = RPMI 5 mM glucose + 10% FBS, 0.00702 µM
[15] = RPMI 5 mM glucose + 10% FBS, 0.0211 µM
[16] = RPMI 5 mM glucose + 10% FBS, 0.0632 µM
[17] = RPMI 5 mM glucose + 10% FBS, 0.19 µM
[18] = RPMI 5 mM glucose + 10% FBS, 0.569 µM
[19] = RPMI 5 mM glucose + 10% FBS, 1.71 µM
[20] = RPMI 5 mM glucose + 10% FBS, 5.12 µM
[21] = RPMI 5 mM glucose + 10% FBS, 15.4 µM
[22] = RPMI 5 mM glucose + 10% FBS, 46.1 µM
[23] = RPMI 5 mM glucose + 10% dialyzed FBS, 0.000781 µM
[24] = RPMI 5 mM glucose + 10% dialyzed FBS, 0.00234 µM
[25] = RPMI 5 mM glucose + 10% dialyzed FBS, 0.00702 µM
[26] = RPMI 5 mM glucose + 10% dialyzed FBS, 0.0211 µM
[27] = RPMI 5 mM glucose + 10% dialyzed FBS, 0.0632 µM
[28] = RPMI 5 mM glucose + 10% dialyzed FBS, 0.19 µM
[29] = RPMI 5 mM glucose + 10% dialyzed FBS, 0.569 µM
[30] = RPMI 5 mM glucose + 10% dialyzed FBS, 1.71 µM
[31] = RPMI 5 mM glucose + 10% dialyzed FBS, 5.12 µM
[32] = RPMI 5 mM glucose + 10% dialyzed FBS, 15.4 µM
[33] = RPMI 5 mM glucose + 10% dialyzed FBS, 46.1 µM

SMILES	cell viability [1] [%]	cell viability [2] [%]	cell viability [3] [%]	cell viability [4] [%]	cell viability [5] [%]	cell viability [6] [%]	cell viability [7] [%]	cell viability [8] [%]	cell viability [9] [%]	cell viability [10] [%]	cell viability [11] [%]	cell viability [12] [%]	cell viability [13] [%]	cell viability [14] [%]	cell viability [15] [%]	cell viability [16] [%]	cell viability [17] [%]	cell viability [18] [%]	cell viability [19] [%]	cell viability [20] [%]	cell viability [21] [%]	cell viability [22] [%]	cell viability [23] [%]	cell viability [24] [%]	cell viability [25] [%]	cell viability [26] [%]	cell viability [27] [%]	cell viability [28] [%]	cell viability [29] [%]	cell viability [30] [%]	cell viability [31] [%]	cell viability [32] [%]	cell viability [33] [%]
CCC(C)(Oc1ccc(C2(c3ccc(OC(C)(CC)C(=O)O)cc3)CCCCC2)cc1)C(=O)O (stereo not given)	103	96.8	108	103	109	108	105	108	101	109	77.9	103	101	119	113	108	111	109	91.3	104	102	77.7	117	101	99.1	108	107	102	118	110	114	113	86.6
CCn1c(-c2nonc2N)nc2cnc(Oc3cccc(NC(=O)c4ccc(OCCN5CCOCC5)cc4)c3)cc21	93.1	106	102	98.7	111	114	113	111	102	82.2	70.3	102	102	108	119	122	100	102	111	93.4	71.9	54.5	124	111	105	113	108	102	92.2	116	106	86.6	59.7
CC(C)C(=O)Nc1ccc([N+](=O)[O-])c(C(F)(F)F)c1	103	112	118	129	122	136	131	134	138	130	130	118	115	119	136	124	140	135	128	123	116	121	125	119	133	144	127	146	142	157	146	139	122
CCOC(=O)\C1=C(/C)N\C2=C(C1C3=CC=C(C=C3)C4=CC=CC=C4)\C(=O)CC(C)(C)C2 (stereo not given)	107	104	101	105	104	113	103	102	105	92	60.4	101	122	134	114	144	108	110	112	108	96.1	58.4	89.4	116	111	98.3	104	89.4	97.5	103	89.8	81.1	57.6
Cn1c(CNc2ccc(C(=N)N)cc2)nc2cc(C(=O)N(CCC(=O)O)c3ccccn3)ccc21	87.6	96.3	95.2	106	101	103	102	117	104	121	116	73.1	99.2	98.6	97.6	102	96.6	99.6	93.2	95.6	110	103	65.6	98	95.8	114	110	104	97.7	122	120	118	119
C[S+]([O-])(=O)C1=CC=C(C=C1)C/2=C(/C(=O)OC2)C3=CC=CC=C3	96	102	105	107	103	115	104	115	115	79.7	94.1	100	107	104	119	114	122	104	95.1	102	66.9	11.4	89.4	105	115	111	112	120	119	117	124	75	71.6
COc1cc(OC)c(/C=C/[S+](=O)([O-])Cc2ccc(OC)c(NCC(=O)[O][Na])c2)c(OC)c1	123	105	125	125	118	75.9	29.5	28.2	27	21.9	13.4	109	107	115	112	111	66.3	20	17.8	15.2	9.59	7.67	121	122	122	120	121	24.1	24.3	18.8	10.1	7.92	8.13
CNc1nccc(-c2cccnc2Oc2cc(C(=O)Nc3cccc(C(F)(F)F)c3)ccc2C)n1	97.2	101	115	113	118	104	122	113	109	90.2	97.8	106	92.6	99.8	103	111	103	113	97.4	95.9	72.4	92.9	95.8	97.4	103	107	119	125	103	107	97.9	82.9	97
OC1CCC(Nc2ncc3nc(Nc4c(F)cc(F)cc4F)n([C@@H]4CCOC4)c3n2)CC1 (stereo not given in full)	96.4	93.4	99.2	110	118	108	110	107	125	80.9	91.4	96.5	92.9	103	95.7	105	101	97.4	105	95.4	40.9	99.4	90.4	111	114	96.1	112	116	118	116	100	84.3	87.3
COc1ccc(-c2nc(N3CCOCC3)c3sc(CN(C)c4ncc(C(=O)NO)cn4)cc3n2)cn1	88.4	101	67.8	34.5	6.86	6.43	6.72	6.14	6.01	5.89	4.98	90.5	83.6	49.9	20.5	6.31	6.48	5.87	5.83	6.2	5.41	3.98	97	108	78.3	37.7	7.5	7.3	6.64	6.58	5.98	6.08	4.38
CC(C)(C)c1[nH]cnc1/C=c1\[nH]c(=O)/c(=C/c2ccccc2)[nH]c1=O	102	69	20	23.9	24.3	25.5	24.3	7.62	4.47	4.16	3.59	117	85.4	16.6	14	16.1	17.9	12.1	4.12	3.51	2.93	2.89	106	80	17.5	21.2	23.4	21.4	19.5	4.68	3.49	3.56	3.02
Cc1ccc([S+](=O)([O-])N[C@@H](Cc2ccccc2)C(=O)CCl)cc1	91	58.6	93.2	93.3	93	105	96.4	109	103	85.5	25.3	87.4	53.1	94	97	95.8	114	95.6	108	104	87	22.1	80.5	49.8	100	104	88.6	95.4	93.6	107	100	94.3	23.4
O=C(Nc1cc2cc[nH]c2cn1)c1ccccc1	87.7	95.6	90.4	104	85.6	102	109	104	18.5	4.59	2.37	75.6	89.4	92.4	90.8	92.8	106	104	90	4.38	2.43	1	85.4	95.1	98.7	98.8	96.8	102	112	117	6.2	5.18	2.59
COc1ccc(C2CNC(=O)C2)cc1OC1CCCC1 (stereo not given)	80.8	93.4	91.4	89.7	106	97.7	107	102	108	97	101	82.9	88.6	89.9	81.7	100	95.3	102	110	97.3	107	90.2	85.9	89.7	101	89.8	95	99.3	94.6	99.9	101	102	103
CCC(C)(C)c1ccc(CC(C)CN2C[C@@H](C)O[C@@H](C)C2)cc1 (stereo not given in full)	69	62.1	88.1	87.3	72.2	64.7	74.7	75.5	84.1	67.8	74.3	80	67.6	87.1	79.9	89.4	36.3	91.8	86.6	84.5	71.9	76.8	71	67.1	94.5	91.7	83.4	78.6	114	82.9	89.7	67.9	78
